Laboratory results as given in ChEMBL document CHEMBL5584339, “Design, Synthesis, and Evaluation of the Antitubercular Activity of 5-Phenyl Substituted-5, 6-dihydropyrido[2, 3-d]pyrimidine-4, 7(3H, 8H)-dione Compounds” (J Med Chem, 2024).
In brackets after ≈: the same amount, converted by molar mass.

Tests used:
Assay type in all cases: functional
[1] = test system: Mycobacterium tuberculosis; test: Antitubercular activity against isoniazid/streptomycin/rifampicin/ethambutol/p-aminosalicylate/rifabutin/ofloxacin resistant Mycobacterium tuberculosis 13946 incubated for 7 days by alamar blue assay; details: Mycobacterium tuberculosis, 13946, 168 h; time 7 day
[2] = test system: Mycobacterium tuberculosis; test: Antitubercular activity against isoniazid/rifampicin resistant Mycobacterium tuberculosis 12525 incubated for 7 days by alamar blue assay; details: Mycobacterium tuberculosis, 12525, 168 h; time 7 day
[3] = test system: Mycobacterium tuberculosis; test: Antitubercular activity against isoniazid/streptomycin/rifampicin/ethambutol/p-aminosalicylate/prothionamide/capreomycin resistant Mycobacterium tuberculosis 14862 incubated for 7 days by alamar blue assay; details: Mycobacterium tuberculosis, 14862, 168 h; time 7 day
[4] = test system: Mycobacterium tuberculosis; test: Antitubercular activity against isoniazid/rifampicin resistant Mycobacterium tuberculosis 16995 incubated for 7 days by alamar blue assay; details: Mycobacterium tuberculosis, 16995, 168 h; time 7 day
[5] = test system: Mycobacterium tuberculosis; test: Antitubercular activity against isoniazid/rifampicin resistant Mycobacterium tuberculosis 16833 incubated for 7 days by alamar blue assay; details: Mycobacterium tuberculosis, 16833, 168 h; time 7 day

Row | SMILES | MIC [1] | MIC [2] | MIC [3] | MIC [4] | MIC [5]
1 | CCCSc1nc2c(c(=O)[nH]1)C(c1ccc(OC(C)C)cc1)CC(=O)N2 (stereo not given) | 1 µg/mL (≈ 2.68 µM) | 4 µg/mL (≈ 10.7 µM) | 2 µg/mL (≈ 5.36 µM) | 2 µg/mL (≈ 5.36 µM) | 1 µg/mL (≈ 2.68 µM)
2 | CCC[S+]([O-])c1nc2c(c(=O)[nH]1)[C@H](c1ccc(OC)cc1[N+](=O)[O-])CC(=O)N2 (stereo not given in full) | – | – | > 32 µg/mL | – | –
3 | CCCSc1nc2c(c(=O)[nH]1)C(c1ccc(OC)cc1[N+](=O)[O-])CC(=O)N2 (racemic) | 1 µg/mL (≈ 2.56 µM) | 0.5 µg/mL (≈ 1.28 µM) | 0.25 µg/mL (≈ 0.64 µM) | 0.5 µg/mL (≈ 1.28 µM) | 0.25 µg/mL (≈ 0.64 µM)
4 | C=CCSc1nc2c(c(=O)[nH]1)C(c1ccc(OC)cc1O)CC(=O)N2 (stereo not given) | 8 µg/mL (≈ 22.3 µM) | 16 µg/mL (≈ 44.5 µM) | 13.3 µg/mL (≈ 36.9 µM) | 32 µg/mL (≈ 89 µM) | 8 µg/mL (≈ 22.3 µM)
5 | CCCS(=O)(=O)c1nc2c(c(=O)[nH]1)[C@H](c1ccc(OC)cc1)CC(=O)N2 | – | – | > 32 µg/mL | – | –
6 | CCCS(=O)(=O)c1nc2c(c(=O)[nH]1)[C@@H](c1ccc(OC)cc1)CC(=O)N2 | – | – | > 32 µg/mL | – | –
7 | CCCOc1ccc(C2CC(=O)Nc3nc(SCCC)[nH]c(=O)c32)c(O)c1 (stereo not given) | 8 µg/mL (≈ 20.5 µM) | 8 µg/mL (≈ 20.5 µM) | 2 µg/mL (≈ 5.14 µM) | 8 µg/mL (≈ 20.5 µM) | 2 µg/mL (≈ 5.14 µM)
8 | CCCSc1nc2c(c(=O)[nH]1)[C@@H](c1ccc(OC)cc1)CC(=O)N2 | 0.125 µg/mL (≈ 0.362 µM) | 0.06 µg/mL (≈ 0.174 µM) | 0.06 µg/mL (≈ 0.174 µM) | 0.125 µg/mL (≈ 0.362 µM) | 0.06 µg/mL (≈ 0.174 µM)
9 | CCCSc1nc2c(c(=O)[nH]1)C(c1ccc(OC)cc1)CC(=O)N2 (racemic) | 0.25 µg/mL (≈ 0.724 µM) | 0.5 µg/mL (≈ 1.45 µM) | 0.25 µg/mL (≈ 0.724 µM) | 0.5 µg/mL (≈ 1.45 µM) | 0.25 µg/mL (≈ 0.724 µM)
10 | C=CCSc1nc2c(c(=O)[nH]1)C(c1ccc(OC)cc1)CC(=O)N2 (stereo not given) | 1 µg/mL (≈ 2.91 µM) | 2 µg/mL (≈ 5.82 µM) | 1 µg/mL (≈ 2.91 µM) | 2 µg/mL (≈ 5.82 µM) | 1 µg/mL (≈ 2.91 µM)
11 | C=CCSc1nc2c(c(=O)[nH]1)C(c1ccc(OC)c(O)c1)CC(=O)N2 (stereo not given) | 4 µg/mL (≈ 11.1 µM) | 8 µg/mL (≈ 22.3 µM) | 15.6 µg/mL (≈ 43.5 µM) | 16 µg/mL (≈ 44.5 µM) | 4 µg/mL (≈ 11.1 µM)
12 | CCCSc1nc2c(c(=O)[nH]1)C(c1ccc(OC)c(N)c1)CC(=O)N2 (stereo not given) | 16 µg/mL (≈ 44.4 µM) | 8 µg/mL (≈ 22.2 µM) | 4 µg/mL (≈ 11.1 µM) | 8 µg/mL (≈ 22.2 µM) | 4 µg/mL (≈ 11.1 µM)
13 | NNC(=O)c1ccncc1 [ISONIAZID] | > 10 µg/mL | > 10 µg/mL | > 10 µg/mL | > 10 µg/mL | > 10 µg/mL
14 | C=CCSc1nc2c(c(=O)[nH]1)C(c1ccc(OC)cc1[N+](=O)[O-])CC(=O)N2 (stereo not given) | 2 µg/mL (≈ 5.15 µM) | 2 µg/mL (≈ 5.15 µM) | 1 µg/mL (≈ 2.57 µM) | 2 µg/mL (≈ 5.15 µM) | 1 µg/mL (≈ 2.57 µM)
15 | CCCSc1nc2c(c(=O)[nH]1)[C@H](c1ccc(OC)cc1[N+](=O)[O-])CC(=O)N2 | – | – | 13.4 µg/mL (≈ 34.4 µM) | – | –
16 | C=CCSc1nc2c(c(=O)[nH]1)C(c1ccc(OCC)cc1)CC(=O)N2 (stereo not given) | 4 µg/mL (≈ 11.2 µM) | 4 µg/mL (≈ 11.2 µM) | 1 µg/mL (≈ 2.8 µM) | 4 µg/mL (≈ 11.2 µM) | 4 µg/mL (≈ 11.2 µM)
17 | CO[C@H]1/C=C/O[C@@]2(C)Oc3c(C)c(O)c4c(O)c(c(/C=N/N5CCN(C)CC5)c(O)c4c3C2=O)NC(=O)/C(C)=C\C=C\[C@H](C)[C@H](O)[C@@H](C)[C@@H](O)[C@@H](C)[C@H](OC(C)=O)[C@@H]1C [RIFAMPIN] | > 10 µg/mL | > 10 µg/mL | > 10 µg/mL | > 10 µg/mL | > 10 µg/mL
18 | CCCSc1nc2c(c(=O)[nH]1)C(c1ccc(OCC)cc1)CC(=O)N2 (stereo not given) | 2 µg/mL (≈ 5.56 µM) | 1 µg/mL (≈ 2.78 µM) | 0.25 µg/mL (≈ 0.696 µM) | 1 µg/mL (≈ 2.78 µM) | 0.5 µg/mL (≈ 1.39 µM)
19 | CCCCSc1nc2c(c(=O)[nH]1)C(c1ccc(OC)cc1)CC(=O)N2 (stereo not given) | 2 µg/mL (≈ 5.56 µM) | 2 µg/mL (≈ 5.56 µM) | 1 µg/mL (≈ 2.78 µM) | 2 µg/mL (≈ 5.56 µM) | 1 µg/mL (≈ 2.78 µM)
20 | CCCOc1ccc(C2CC(=O)Nc3nc(SCCC)[nH]c(=O)c32)cc1 (stereo not given) | 1 µg/mL (≈ 2.68 µM) | 2 µg/mL (≈ 5.36 µM) | 2 µg/mL (≈ 5.36 µM) | 2 µg/mL (≈ 5.36 µM) | 0.5 µg/mL (≈ 1.34 µM)
21 | CCCS(=O)(=O)c1nc2c(c(=O)[nH]1)[C@H](c1ccc(OC)cc1[N+](=O)[O-])CC(=O)N2 | – | – | > 32 µg/mL | – | –
22 | CCC[S+]([O-])c1nc2c(c(=O)[nH]1)[C@@H](c1ccc(OC)cc1)CC(=O)N2 (stereo not given in full) | – | – | > 32 µg/mL | – | –
23 | CCC[S+]([O-])c1nc2c(c(=O)[nH]1)[C@@H](c1ccc(OC)cc1[N+](=O)[O-])CC(=O)N2 (stereo not given in full) | – | – | > 32 µg/mL | – | –
24 | CCCSc1nc2c(c(=O)[nH]1)[C@H](c1ccc(OC)cc1)CC(=O)N2 | – | – | 12.8 µg/mL (≈ 37.1 µM) | – | –
25 | CCCSc1nc2c(c(=O)[nH]1)C(c1ccc(OC)cc1O)CC(=O)N2 (stereo not given) | 2 µg/mL (≈ 5.53 µM) | 4 µg/mL (≈ 11.1 µM) | 4 µg/mL (≈ 11.1 µM) | 4 µg/mL (≈ 11.1 µM) | 1 µg/mL (≈ 2.77 µM)
26 | CCCSc1nc2c(c(=O)[nH]1)[C@@H](c1ccc(OC)cc1[N+](=O)[O-])CC(=O)N2 | 0.125 µg/mL (≈ 0.32 µM) | 0.125 µg/mL (≈ 0.32 µM) | 0.059 µg/mL (≈ 0.151 µM) | 0.125 µg/mL (≈ 0.32 µM) | 0.06 µg/mL (≈ 0.154 µM)
27 | CCCSc1nc2c(c(=O)[nH]1)C(c1ccc(OC)c(O)c1)CC(=O)N2 (stereo not given) | 4 µg/mL (≈ 11.1 µM) | 8 µg/mL (≈ 22.1 µM) | 8 µg/mL (≈ 22.1 µM) | 8 µg/mL (≈ 22.1 µM) | 4 µg/mL (≈ 11.1 µM)
28 | C=CCSc1nc2c(c(=O)[nH]1)C(c1ccc(OCCC)cc1)CC(=O)N2 (stereo not given) | 1 µg/mL (≈ 2.69 µM) | 4 µg/mL (≈ 10.8 µM) | 4 µg/mL (≈ 10.8 µM) | 4 µg/mL (≈ 10.8 µM) | 1 µg/mL (≈ 2.69 µM)
29 | CCCS(=O)(=O)c1nc2c(c(=O)[nH]1)[C@@H](c1ccc(OC)cc1[N+](=O)[O-])CC(=O)N2 | – | – | > 32 µg/mL | – | –
30 | CCC[S+]([O-])c1nc2c(c(=O)[nH]1)[C@H](c1ccc(OC)cc1)CC(=O)N2 (stereo not given in full) | – | – | > 32 µg/mL | – | –
